Measured values as given in US20240317732A1, “A NEW MOLECULAR SCAFFOLD FOR TARGETING HRPN13” (THE UNITED STATES OF AMERICA AS REPRESENTED BY THE …, priority 2021, published 2024).
“Also recorded” adds a separate entry of the source.

Tests used:
RPMI 8226 WT cells = assay: Apoptosis by cleaved caspase-9 immunoblot in RPMI 8226 WT; format: cell-based; details: 40 μM PROTAC or 20 μM XL5-S2
Method: RPMI 8226 WT or trRpn13-MM2 (MM2) cells were treated with 40 μM XL5-VHL-2, 40 μM XL5-VHL-3 or DMSO (vehicle control) and the whole cell extract immunoprobed for hRpn13 or cleaved caspase-9 with β-actin as a loading control. A black asterisk indicates cleaved caspase-9 in the 2-min immunoblot for hRpn13, as hRpn13 was probed following cleaved caspase-9 and without stripping the membrane.
RPMI 8226 WT or trRpn13-MM2 cells were treated with 20 μM XL5-S2 or DMSO (vehicle control) and the whole cell extract immunoprobed for hRpn13 or cleaved caspase-9, with β-actin as a loading control. A black asterisk indicates cleaved caspase-9 in the 5-min immunoblot for hRpn13, as hRpn13 was probed following cleaved caspase-9 and without stripping the membrane.
HCT116 WT, HCT116 trRpn13, RPMI 8226 or 293T cells were collected and washed with PBS followed by lysing in 1% Triton-TBS lysis buffer (50 mM Tris-HCl, pH 7.5, 150 mM NaCl, 1 mM PMSF) supplemented with protease inhibitor cocktail (Roche). Total protein concentration was determined by bicinchoninic acid (Pierce). Protein lysates were prepared in 1χ LDS (ThermoFisher, NP0007) buffer with 100 mM DTT and heating at 70° C. for 10 min, loaded onto 4-12% Bis-Tris polyacrylamide gels (Life Technologies), subjected to SDS-PAGE and transferred to Invitrolon polyvinylidene difluoride membranes (Life Technologies). […]

HCT116 WT cells = assay: MTT cell metabolism / cell viability assay in HCT116 WT; format: cell-based; details: read-out: XL5-VHL-2 Sensitivity (IC50, μM) Cell viability assay
Method: (§1) Since previous hRpn13-targeting molecules induce apoptosis in multiple myeloma and colon cancer cells we tested whether XL5 restricts the RPMI 8226 multiple myeloma and HCT116 colon cancer cell lines by measuring metabolism with an MTT (3-(4,5-dimethylthiazol-2-yl)-2,5-diphenyltetrazolium bromide) assay. Experiments were also conducted in parallel with a HCT116 colon cancer cell line in which the exon encoding hRpn13 C88 is deleted, named trRpn13; this cell line expresses a truncated hRpn13 protein with a defective Pru and inability to bind the proteasome28. RPMI 8226 and WT (wild-type) or trRpn13 HCT116 cells seeded at 8,000 and 4,000 cells per well were treated with varying concentrations of XL5 extending to 40 μM and compared to cells incubated with equivalent amounts of DMSO vehicle control.
HCT116 WT or trRpn13 cells were seeded at 4,000 cells/well whereas RPMI 8226 cells were seeded at 8,000 cells/well with RPMI 1640 medium (no phenol red, Thermo Fisher Scientific 11835030) containing 2% fetal bovine serum in 96-well plates. Cells were treated with 0.4% DMSO (as a control) and this concentration was maintained with XL5, XL5-PROTACs XL5-VHL, XL5-VHL-2, XL5-CRBN, or XL5-IAP, and E3 ligands VHL-Ac, thalidomide (Selleckchem, catalog NO. S1193), or IAP-Bz at 10 μM, 20 μM, 30 μM or 40 μM concentration. […] Absorbance at 570 nm was measured by using CLARIOstar (BMG LABTECH).

RPMI 8226 cells = assay: MTT cell metabolism / cell viability assay in RPMI 8226; format: cell-based
Method: as §1
HCT116 WT or trRpn13 cells were seeded at 4,000 cells/well whereas RPMI 8226 cells were seeded at 8,000 cells/well with RPMI 1640 medium (no phenol red, Thermo Fisher Scientific 11835030) containing 2% fetal bovine serum in 96-well plates. Cells were treated with 0.4% DMSO (as a control) and this concentration was maintained with XL5, XL5-PROTACs XL5-VHL, XL5-VHL-2, XL5-CRBN, or XL5-IAP, and E3 ligands VHL-Ac, thalidomide (Selleckchem, catalog NO. S1193), or IAP-Bz at 10 μM, 20 μM, 30 μM or 40 μM concentration. After 48 hours, 0.35 mg/mL MTT was added for 4 hours of incubation. Stop solution (40% DMF, 10% SDS (W/V), 25 mM HCl, 2.5% acetic acid in H2O) was added to the cells and incubated overnight. Absorbance at 570 nm was measured by using CLARIOstar (BMG LABTECH).

[1] = test system: RPMI 8226 trRpn13-MM2 cells; assay: MTT cell viability assay in RPMI 8226 trRpn13-MM2; format: cell-based; details: RPMI 8226 trRpn13-MM2, 48 hours, compared to WT
Method: FIGS. 11A-11C show hRpn13-Pru PROTACs with different linkers restrict cell viability in an hRpn13 Pru-dependent manner. RPMI 8226 WT (darker shades) or trRpn13-MM2 (lighter shades) cells were treated with the indicated concentration of XL5-VHL-2 (FIG. 11A), XL5-VHL-3 (FIG. 11A), XL5-VHL-4 (FIG. 11B) or XL5-VHL-5 (FIG. 11C) for 48 hours and cell metabolism measured by an MTT assay; data represent mean±SD of n=6 biological replicates. Viability is calculated as (λ570)sample/(λ570)control×100(%).

hRpn13 / hRpn13-Pru = assay: Immunoblot of hRpn13 species in RPMI 8226 cell lysates; format: cell-based, human; details: RPMI 8226, 40 μM, 24 hours
Method: HCT116 WT, HCT116 trRpn13, RPMI 8226 or 293T cells were collected and washed with PBS followed by lysing in 1% Triton-TBS lysis buffer (50 mM Tris-HCl, pH 7.5, 150 mM NaCl, 1 mM PMSF) supplemented with protease inhibitor cocktail (Roche). Total protein concentration was determined by bicinchoninic acid (Pierce). Protein lysates were prepared in 1χ LDS (ThermoFisher, NP0007) buffer with 100 mM DTT and heating at 70° C. for 10 min, loaded onto 4-12% Bis-Tris polyacrylamide gels (Life Technologies), subjected to SDS-PAGE and transferred to Invitrolon polyvinylidene difluoride membranes (Life Technologies). The membranes were blocked in Tris-buffered saline with 0.1% Tween-20 (TBST) supplemented with 5% skim milk, incubated with primary antibody, washed in TBST, incubated with secondary antibody and washed extensively in TBST. Pierce™ ECL Western Blotting Substrate (32106; Thermo Fisher Scientific) or Amersham™ ECL™ Primer Western Blotting Detection Reagent (cytiva) was used for antibody signal detection.
To test whether the XL5-PROTACs cause ubiquitination and degradation of hRpn13, lysates from RPMI 8226 (FIG. 5C) cells treated with 40 μM XL5 orXL5-PROTAC compared to DMSO vehicle control were immunoprobed for hRpn13 and β-actin (loading control).

MM.1S cells = assay: MTT cell viability assay in MM.1S; format: cell-based; details: read-out: XL5-VHL-2 Sensitivity (IC50, μM) Cell viability assay
Method: The mass spectra (upper panel) were deconvoluted from the UV peak (lower panel) indicated with a black arrow. […] Viability is calculated as (λ570)sample/(λ570)control×100(%). […] Immunoprobing for cleaved caspase-9 and hRpn13 was done separately with re-probing for β-actin. […] A dashed line indicates the value […].

`Cc1ncsc1-c1ccc([C@H](C)NC(=O)[C@@H]2C[C@@H](O)CN2C(=O)[C@@H](NC(=O)CCCCc2cn(-c3ccc(C(=O)Nc4cccc(/C=C(\C#N)C(=O)Nc5ccccc5C(=O)O)c4)cc3)nn2)C(C)(C)C)cc1` [XL5-VHL-2] was tested, and the “apoptosis induction (cleaved caspase-9)” value (RPMI 8226 WT cells) was “poorer induction of cleaved caspase-9”, the IC50 (HCT116 WT cells) was 23.6 ± 4.7 µM and the “metabolic activity / cell viability (MTT)” value (RPMI 8226 cells; RPMI 8226, 48 hours, up to 40 μM) was “hook effect and lost”. The IC50 (RPMI 8226 cells; RPMI 8226, read-out: XL5-VHL-2 Sensitivity (IC50, μM) Cell viability assay) was 4.2 ± 1 µM, the “cell viability (MTT)” value [1] was “loss of activity” and the “lower molecular weight hRpn13 species (hRpn13-Pru) level” value (hRpn13 / hRpn13-Pru) was “less hRpn13-Pru loss; also recorded: reduced in abundance”. The “higher molecular weight hRpn13 species characteristic of ubiquitination” value (hRpn13 / hRpn13-Pru; longer exposure) was “increase in higher molecular weight hRpn13 species” and the IC50 (MM.1S cells) was 5.9 ± 0.7 µM.
